Results taken from ChEMBL document CHEMBL1138959, “Novel class of cyclophosphamide prodrug: cyclophosphamide spiropiperaziniums (CPSP)” (Bioorg Med Chem Lett, 2006).

Columns and labels:
CCRF S-180 [1] = assay: Antitumor activity against S180 cells implanted in mouse at 30 mg/kg, ip; assay type: functional; details: route intraperitoneal; for inhibition in vivo at 30 mg/kg: Mus musculus, CCRF S-180, ip
H22 [2] = assay: Antitumor activity against H22 cells implanted in mouse at 30 mg/kg, ip; assay type: functional; details: route intraperitoneal; for inhibition in vivo at 30 mg/kg: Mus musculus, H22, ip
CCRF S-180 [3] = assay: Antitumor activity against S180 cells implanted in mouse at 15 mg/kg, ip; assay type: functional; details: CCRF S-180, ip, route intraperitoneal
CCRF S-180 [4] = assay: Antitumor activity against S180 cells implanted in mouse at 60 mg/kg, ip; assay type: functional; details: CCRF S-180, ip, route intraperitoneal
H22 [5] = assay: Antitumor activity against H22 cells implanted in mouse at 15 mg/kg, ip; assay type: functional; details: route intraperitoneal
H22 [6] = assay: Antitumor activity against H22 cells implanted in mouse at 60 mg/kg, ip; assay type: functional; details: route intraperitoneal
[7] = Toxicity in ip dosed mouse; assay type: organism-based; details: in vivo

Row | SMILES | inhibition in vivo at 30 mg/kg (CCRF S-180 [1]) [%] | inhibition in vivo at 30 mg/kg (H22 [2]) [%] | other results
1 | O=P1(N2CC[N+]3(CCN(Cc4ccccc4)CC3)CC2)NCCCO1 (centres undefined) | 33.7 | – | –
2 | O=P1(N2CC[N+]3(CCCCC3)CC2)NCCCO1 (centres undefined) | 39.9 | 12.8 | –
3 | C[N+]1(Cc2ccccc2)CCN(P2(=O)NCCCO2)CC1 (centres undefined) | -3.28 | -6.63 | –
4 | CC1C[N+]2(CCN(P3(=O)NCCCO3)CC2)CC(C)O1 (centres undefined) | 46.6 | 20.6 | –
5 | CN1CC[N+]2(CC1)CCN(P1(=O)NCCCO1)CC2.[Cl-] (centres undefined) | – | – | inhibition in vivo at 15 mg/kg (CCRF S-180 [3]): 37.5%; Inhibition (H22 [2]): 41.66%; Inhibition (CCRF S-180 [1]): 42.31%; inhibition in vivo at 60 mg/kg (CCRF S-180 [4]): 55.2%; inhibition in vivo at 15 mg/kg (H22 [5]): 24.4%; inhibition in vivo at 60 mg/kg (H22 [6]): 38%; LD50 [7]: 1200 mg/kg
6 | CC1CC[N+]2(CC1)CCN(P1(=O)NCCCO1)CC2 (centres undefined) | -13.3 | 32.2 | –
7 | O=P1(N2CC[N+]3(CCNCC3)CC2)NCCCO1 (centres undefined) | 10.7 | 8.64 | –
8 | O=P1(N2CC[N+]3(CCOCC3)CC2)NCCCO1 (centres undefined) | -27.6 | 32.5 | –
9 | O=P1(N2CC[N+]3(CCCC3)CC2)NCCCO1 (centres undefined) | 26.7 | 17.3 | –
10 | C[N+]1(C)CCN(P2(=O)NCCCO2)CC1 (centres undefined) | 33.5 | 28.8 | –
11 | O=P1(N2CC[N+]3(CCCCCC3)CC2)NCCCO1.[Cl-] (centres undefined) | 36 | 48.4 | inhibition in vivo at 15 mg/kg (CCRF S-180 [3]): 38.2%; inhibition in vivo at 60 mg/kg (CCRF S-180 [4]): 53.4%; inhibition in vivo at 15 mg/kg (H22 [5]): 17.2%; inhibition in vivo at 60 mg/kg (H22 [6]): 51.3%; LD50 [7]: 239 mg/kg
12 | O=P1(N2CC[N+]3(CCc4ccccc4C3)CC2)NCCCO1 (centres undefined) | 18.9 | – | –
13 | CN1CC[N+]2(CC1)CCN(P1(=O)NCCCO1)CC2.[I-] (centres undefined) | – | – | Inhibition (H22 [2]): 16.19%; Inhibition (CCRF S-180 [1]): 29.41%
14 | O=P1(N(CCCl)CCCl)NCCCO1 (centres undefined) [CYCLOPHOSPHAMIDE ANHYDROUS] | 72.9 | 72 | LD50 [7]: 387 mg/kg
15 | CN1CC[N+]2(CC1)CCN(P1(=O)NCCCO1)CC2.[Br-] (centres undefined) | – | – | Inhibition (H22 [2]): 11.6%; Inhibition (CCRF S-180 [1]): 18.72%
